Format in all cases: cell-based
For data set [1], the system named is IG20-SVs. Description: Screening of shRNAs: knock-down of exogenous IG20-SV-YFP expression in 293T cells (flow cytometry). As for the experimental part:
In order to determine which of the IG20-SVs contribute to apoptosis and cell proliferation, siRNA (small inhibitory RNA) approach was used to selectively knockdown IG20-SVs (Table 1). The siRNAs were cloned into the pSUPER vector to allow for expression of shRNAs (small hairpin RNAs). 293T cells were co-transfected with YFPIG20pa, YFP-MADD or YFP-DENN-SV along with different shRNA-expressing pSUPER vectors at ratios of 1:1, 1:3 and 1:7. Knock-down of protein expression was assessed by a reduction in YFP expression using flow cytometry. Several shRNAs were screened. Knock-down of expression of exogenous IG20-SVs were analyzed. 293T cells were plated onto 12-well plates and cotransfected with the indicated IG20-SV-YFP and pSUPER-shRNA constructs. YFP expression was represented as Mean Fluorescence Intensity. Specificity of Mid-shRNA was analyzed. The inability of Mid-shRNA to suppress the expression of mutant-IG20pa, -MADD, and -DENN-SV constructs was analyzed. […] Vector alone or a control shRNA had little or no effect on the expression of IG20-SVs. The sequences provided in Table 1 are exemplary and other sequences that specifically target MADD or any other isoform can be designed by those of skill in the art based on the information given in Table 1 and the disclosure in general.
To further confirm specificity of Mid-shRNA, silent mutations were created in cDNAs encoding IG20-SVs at sites corresponding to the 5th, 7th, 11th and 14th nucleotides of the Mid-shRNA. These mutations neither affected the amino acid sequence nor protein expression. Mutant-IG20-SV constructs were cotransfected with the pSUPER-shRNA and assessed for their expression. […] FIG. 18 is a schematic illustration of the targets of some of the shRNAs used to knock-down specific IG20 splice variants (isoforms). FIG. 11 provides schematic illustration of screening for shRNAs (A) and lentivirus production that contain the shRNA expressing vectors (B). Fluorescence values were measured from cells transfected with the respective shRNAs (FIG. 12).
Screening of shRNAs. IG20-YFP constructs were co-transfected with different pSUPER-shRNA constructs in different ratios (1:1, 1:3, 1:7) into 293T cells using Calcium phosphate. 24 hours post-transduction, cells were trypsinized, collected and washed twice in cold PBS, and analyzed for YFP expression by flow cytometry using a FACS Calibur (Becton Dickinson, N.J.).
On the technique in general: A flow cytometer gives signals particle by particle.

In data set [2] the test system is IG20-SVs. Description: RT-PCR of IG20-SVs in shRNA-transduced PA-1 cells. The following applies: PA-1, 72 hours post-transduction. The protocol:
The effects of IG20 down-modulation in PA-1 cells were analyzed. Down-modulation of endogenous IG20 in PA-1 cells was analyzed. RT-PCR of IG20-SVs using F2-B2 primers from PA-1 cells 72 hours post-transduction was performed. Amplification of only IG20pa and MADD using 13L-F and B2 primers was performed. Nuclear Condensation was also determined. 72 hours post-transduction, PA-1 cells were stained with Hoechst stain and analyzed by FACS. Mitochondrial Depolarization was performed. 72 hours post transduction, PA-1 cells were stained with TMRM and analyzed by FACS.
RT-PCR. Total RNA was extracted from 1×10^6 transduced cells using Trizol (Invitrogen Life Technologies, Carlsbad, Calif.), and 1 jig of RNA was used for RT-PCR using the Super-Script One-Step RT-PCR system (Invitrogen Life Technologies, Carlsbad, Calif.). Briefly, the cDNAs were synthesized at 50° C. for 30 minutes followed by incubation at 94° C. for 2 minutes. Subsequently, 35 cycles of PCR were carried out with de-naturation at 95° C. for 30 seconds, annealing at 55° C. for 30 seconds and extension at 72° C. for 1 minute. This was followed by a final incubation at 72° C. for 7 minutes. The sequences of F2-B2 and GAPDH primers were as published (Al-Zoubi et al., (2001), J Biol Chem, 276 (50), 47202-11.). 13L-Forward (5′[…]3′ (SEQ ID NO: 15)) and B2-reverse primers were used to amplify only MADD and IG20pa. […]

The subject of data set [3] is caspase-8. Kind of data set: Immunoblot of caspase-8 processing in transduced PA-1 cells. Particulars: PA-1, 48 h post-transduction. The protocol: (§1) To gain insight into the mechanism underlying MADD-mediated cell survival, whether caspases were activated upon abrogation of MADD expression examined. HeLa cells and PA-1 cells were collected 48 h post-transduction and probed for caspase-8 and FADD, which are components of the DISC. […] TRAIL treatment results in recruitment of procaspase-8 to the receptors followed by its cleavage resulting in its activation. The cleaved intermediate fragments (p43/p41) and the catalytically active subunits of caspase-8 (p18) were detected upon TRAIL treatment. Caspase-8 is the initiator caspase that can cause activation of the effector caspase-3. A decrease in the amount of pro-caspase-3 indicates its cleavage to form active caspase-3 only in MADD-depleted cells.
(§2) Immunoblotting. The membranes were blocked in 5% non-fat dry milk in PBS-Tween (PBS with 0.05% Tween 20) for 1 hour. Primary antibodies were used at a concentration of 1 μg/mL and the secondary antibodies were used at a 1:10000 concentration. The blots were developed by enhanced chemiluminescence according to the manufacturer's protocol (Pierce Biotechnology Inc., Rockford, Ill.).
On the technique in general: In western blotting, separated proteins are transferred to a membrane and probed.

For a further data set, the system named is HeLa cells. Description: Cell growth: trypan blue-negative viable cell count, HeLa. The following applies: relative to controls. The protocol:
Cell Growth. 24 hours post-transduction, HeLa cells were plated as described in materials and methods. Cells were then harvested and viable cells (trypan blue negative cells) were counted on indicated days. Data represent Mean+SD of triplicates. Cell proliferation. 24 hours post-transduction HeLa cells were stained with CF SE-red (SNARF-1 carboxylic acid, acetate, succinimidyl ester), harvested on indicated days and evaluated for CFSE-dilution by FACS. The numbers on the histograms indicate geometric peak mean intensities of CFSE staining in the transduced cells. Cell survival. Crystal violet staining of cells surviving upon IG20 down-modulation after transduction shown C-G.
In order to assess the effects on cell growth and proliferation, various shRNA-expressing viable cells were counted. […] The cells were stained with CFSE and cell division was monitored. […] Further confirmation was obtained by plating equal numbers of HeLa cells expressing various shRNAs and determining the number and size of colonies after 12 days.
Cell Proliferation. 24 hours post-transduction, 5×10^5 HeLa or 8×10^5 PA-1 cells were plated into six-well plates. Every other day, cells were collected, washed and stained with trypan blue, and trypan blue-negative viable cells were counted.

Data set [4] deals with caspase-8. Description: Immunoblot of caspase-8 processing in transduced HeLa cells. Particulars: 48 h post-transduction. As for the experimental part: as §1, §2
Another data set deals with MADD. Description: Phosphorylation of endogenous MADD in HeLa cells (anti-phospho antibodies). Particulars: LY 10 μM 1 h, IGF-1 150 ng/ml 20 minutes.

This note sets out measurements from patent publication US7910723B2, “IG20 splice variants therapeutics for cancer” (The Board of Trustees of the University of Illinois, priority 2006, dated 2011).

Take “13L-shRNA: shRNA targeting exon 13L (IG20, MADD), 5′ CGGCGAATCTATGACAATC-3′ (SEQ ID NO: 4)”: the “Effect on IG20-SVs devoid of the targeted exon (specificity)” value in the data set on IG20-SVs [1] is recorded as “little or no effect on IG20-SVs devoid of the targeted exon”. In the data set on IG20-SVs [1] (293T cells cotransfected with IG20-SV-YFP and pSUPER-shRNA, ratios 1:1, 1:3, 1:7), the “Knock-down of expression of exogenous IG20-SVs (YFP expression, Mean Fluorescence Intensity)” value is “down-modulated IG20pa/MADD, leaving the expression of IG20-SV2 and DENN-SV unaltered”. Further, the “Down-modulation of endogenous IG20-SVs (RT-PCR)” value with IG20-SVs [2] is recorded as “abrogated only MADD expression”. For the same compound, the “Intermediate active-caspase-8 proteins (p43/41)” value in the data set with caspase-8 [3] and in the data set on caspase-8 [4] was “higher amounts of the intermediate active-caspase-8 proteins (p43/41)” throughout. The “Numbers of viable cells” value with HeLa cells was “significant decrease in the numbers of viable cells”.

Consider `O=c1cc(N2CCOCC2)oc2c(-c3ccccc3)cccc12` [LY], for which, in the data set on MADD, the “Phosphorylation of endogenous MADD” value is “decreased considerably”.
